Experimental data as given in US20250353891A1 (MEDIMMUNE LIMITED, priority 2022, published 2025).
Starred links: 1 amine or outer side, 2 acyl side, 3 side chain; linkers in the order of their positions; H or OH if unused. Non-standard residues stand in square brackets, D forms with d. Residues, ends and D or L forms follow the SMILES beside them. Groups on a side chain read outwards from the residue. *: point of attachment. C20 diacid = O=C(O)CCCCCCCCCCCCCCCCCCC(=O)*; C18 diacid = O=C(O)CCCCCCCCCCCCCCCCC(=O)*; γGlu = O=C(O)[C@H](CCC(=O)[*:2])N[*:1]; αMeF = C[C@](N)(Cc1ccccc1)C(=O)O; AEEA = NCCOCCOCC(=O)O; Aib = CC(C)(N)C(=O)O

What was measured:
[1] = target: human glucagon receptor (hGCGR) (Homo sapiens, UniProt P47871); assay: cAMP production (HTRF) in CHO cells expressing hGCGR; format: cell-based; design: expressed in transfected cells; settings: Table 6, peptides modified at position 17; cAMP in CHO hGCGR cells; geometric mean; read-out: hGluc-R EC50
Description: Cells were re-suspended in assay buffer at a batch-dependent optimized concentration (typically hGLP-1R cells at 1×10^5 cells/mL, hGCGR cells at 2×10^5 cells/mL).
Cells were added to the assay plate using a multidrop dispenser and incubated at room temperature for 30 minutes before measuring the cAMP level using a cAMP dynamic 2 homogeneous time resolved Fluorescence (HTRF) kit (Cisbio Bioassays #62AM4PEJ) following the two-step protocol as per manufacturer's recommendations. In brief, anti-cAMP cryptate (donor fluorophore) and cAMP-d2 (acceptor fluorophore) were made up separately by diluting each 1 in 20 in conjugate and lysis buffer provided in the kit. Anti-CAMP cryptate was added to all wells of the assay plate, followed by cAMP-d2 added to all wells except non-specific binding (NSB) wells (to which conjugate and lysis buffer was added).
Data was transformed to % Delta F as described in the manufacturer's guidelines and analyzed by 4-parameter logistic fit to determine EC50 values.

[2] = target: human GLP-1 receptor (hGLP-1R) (Homo sapiens, UniProt P43220); assay: cAMP production (HTRF) in CHO cells expressing hGLP-1R; format: cell-based; design: expressed in transfected cells; settings: for EC50: Table 6, peptides modified at position 17, cAMP in CHO hGLP-1R cells, geometric mean, read-out: hGLP-1R EC50; for % Relative Potency Ratio: Table 6, % GLP-1R activity relative to GLP-1 / % GlucR activity relative to glucagon
Procedure, shortened: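 Cells were resuspended in assay buffer at batch-optimized density, typically 1×10^5 cells/mL for hGLP-1R and 2×10^5 cells/mL for hGCGR. After 30 min incubation at room temperature with compound, cAMP was measured by two-step HTRF. EC50 values came from 4-parameter logistic fits of % Delta F.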

Chain of human GLP-1 receptor (hGLP-1R) (P43220 24-463): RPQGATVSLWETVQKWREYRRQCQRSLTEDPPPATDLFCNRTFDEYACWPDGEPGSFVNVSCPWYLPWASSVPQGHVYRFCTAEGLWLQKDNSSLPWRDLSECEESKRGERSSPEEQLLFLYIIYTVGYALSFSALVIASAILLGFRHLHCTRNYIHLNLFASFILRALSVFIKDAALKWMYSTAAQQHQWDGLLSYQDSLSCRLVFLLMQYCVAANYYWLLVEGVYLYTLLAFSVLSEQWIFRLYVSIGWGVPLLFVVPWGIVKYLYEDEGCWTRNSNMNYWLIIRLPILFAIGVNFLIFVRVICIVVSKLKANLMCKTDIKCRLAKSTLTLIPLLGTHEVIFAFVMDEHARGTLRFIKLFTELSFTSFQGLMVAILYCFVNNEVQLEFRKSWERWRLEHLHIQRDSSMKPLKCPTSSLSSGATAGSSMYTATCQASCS
Chain of human glucagon receptor (hGCGR) (P47871 26-477): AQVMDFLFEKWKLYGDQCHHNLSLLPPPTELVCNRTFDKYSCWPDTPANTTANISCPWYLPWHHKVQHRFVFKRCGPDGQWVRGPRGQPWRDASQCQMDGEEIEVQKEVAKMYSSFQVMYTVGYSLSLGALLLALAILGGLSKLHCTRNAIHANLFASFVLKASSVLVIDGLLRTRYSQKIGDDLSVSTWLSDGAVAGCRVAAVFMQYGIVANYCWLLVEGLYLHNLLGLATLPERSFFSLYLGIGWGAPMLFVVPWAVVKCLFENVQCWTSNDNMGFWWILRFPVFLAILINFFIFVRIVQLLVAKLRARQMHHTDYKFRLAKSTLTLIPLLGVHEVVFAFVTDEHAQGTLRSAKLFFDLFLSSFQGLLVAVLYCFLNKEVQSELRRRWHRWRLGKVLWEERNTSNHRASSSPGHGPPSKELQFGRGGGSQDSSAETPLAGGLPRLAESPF

EC50 [1]	EC50 [2]	% Relative Potency Ratio [2]	Structure (SMILES)
0.105 nM	0.033 nM	6.3	CC[C@H](C)[C@H](NC(=O)C(C)(C)NC(=O)[C@H](C)NC(=O)[C@@H](NC(=O)[C@](C)(Cc1ccccc1)NC(=O)[C@H](CC(=O)O)NC(=O)[C@H](CCCNC(=N)N)NC(=O)[C@H](C)NC(=O)[C@H](C)NC(=O)[C@H](CCCCNC(=O)COCCOCCNC(=O)COCCOCCNC(=O)CC[C@H](NC(=O)CCCCCCCCCCCCCCCCC(=O)O)C(=O)O)NC(=O)[C@H](CO)NC(=O)[C@H](CC(=O)O)NC(=O)[C@H](CC(C)C)NC(=O)[C@](C)(Cc1ccccc1)NC(=O)[C@H](CCCCN)NC(=O)[C@H](CO)NC(=O)[C@@H](NC(=O)[C@H](CC(=O)O)NC(=O)[C@H](CO)NC(=O)[C@@H](NC(=O)[C@](C)(Cc1ccccc1)NC(=O)[C@H](CO)NC(=O)CNC(=O)[C@H](Cc1c[nH]cn1)NC(=O)C(C)(C)NC(=O)[C@@H](N)Cc1c[nH]cn1)[C@@H](C)O)C(C)C)[C@@H](C)CC)C(=O)N[C@@H](C)C(=O)N[C@@H](CC(N)=O)C(=O)N[C@H](C(N)=O)[C@@H](C)O [Peptide 16] (H-H[Aib]HGS[αMeF]TSDVSK[αMeF]LDSK([AEEA-AEEA-γGlu-C18 diacid])AARD[αMeF]IA[Aib]IANT-NH2; N-terminus assumed)
0.135 nM	0.045 nM	5.9	CC[C@H](C)[C@H](NC(=O)[C@H](CO)NC(=O)[C@H](CCC(=O)O)NC(=O)[C@@H](NC(=O)[C@](C)(Cc1ccccc1)NC(=O)[C@H](CC(=O)O)NC(=O)[C@H](CCCNC(=N)N)NC(=O)[C@H](C)NC(=O)[C@H](C)NC(=O)[C@H](CCCCNC(=O)COCCOCCNC(=O)COCCOCCNC(=O)CC[C@H](NC(=O)CCCCCCCCCCCCCCCCC(=O)O)C(=O)O)NC(=O)[C@H](CO)NC(=O)[C@H](CC(=O)O)NC(=O)[C@H](CC(C)C)NC(=O)[C@](C)(Cc1ccccc1)NC(=O)[C@H](CCCCN)NC(=O)[C@H](CO)NC(=O)[C@@H](NC(=O)[C@H](CC(=O)O)NC(=O)[C@H](CO)NC(=O)[C@@H](NC(=O)[C@](C)(Cc1ccccc1)NC(=O)[C@H](CO)NC(=O)CNC(=O)[C@H](Cc1c[nH]cn1)NC(=O)C(C)(C)NC(=O)[C@@H](N)Cc1c[nH]cn1)[C@@H](C)O)C(C)C)C(C)C)C(=O)N[C@@H](C)C(=O)N[C@@H](CC(N)=O)C(=O)N[C@H](C(N)=O)[C@@H](C)O [Peptide 17] (H-H[Aib]HGS[αMeF]TSDVSK[αMeF]LDSK([AEEA-AEEA-γGlu-C18 diacid])AARD[αMeF]VESIANT-NH2; N-terminus assumed)
0.122 nM	0.0205 nM	11.7	CC[C@H](C)[C@H](NC(=O)[C@H](CO)NC(=O)[C@H](CCC(N)=O)NC(=O)[C@@H](NC(=O)[C@](C)(Cc1ccccc1)NC(=O)[C@H](CC(=O)O)NC(=O)[C@H](CCCNC(=N)N)NC(=O)[C@H](C)NC(=O)[C@H](C)NC(=O)[C@H](CCCCNC(=O)COCCOCCNC(=O)COCCOCCNC(=O)CC[C@H](NC(=O)CCCCCCCCCCCCCCCCC(=O)O)C(=O)O)NC(=O)[C@H](CO)NC(=O)[C@H](CC(=O)O)NC(=O)[C@H](CC(C)C)NC(=O)[C@](C)(Cc1ccccc1)NC(=O)[C@H](CCCCN)NC(=O)[C@H](CO)NC(=O)[C@@H](NC(=O)[C@H](CC(=O)O)NC(=O)[C@H](CO)NC(=O)[C@@H](NC(=O)[C@](C)(Cc1ccccc1)NC(=O)[C@H](CO)NC(=O)CNC(=O)[C@H](Cc1c[nH]cn1)NC(=O)C(C)(C)NC(=O)[C@@H](N)Cc1c[nH]cn1)[C@@H](C)O)C(C)C)C(C)C)C(=O)N[C@@H](C)C(=O)N[C@@H](CC(N)=O)C(=O)N[C@H](C(N)=O)[C@@H](C)O [Peptide 18] (H-H[Aib]HGS[αMeF]TSDVSK[αMeF]LDSK([AEEA-AEEA-γGlu-C18 diacid])AARD[αMeF]VQSIANT-NH2; N-terminus assumed)
0.133 nM	0.0383 nM	6.9	CC[C@H](C)[C@H](NC(=O)C(C)(C)NC(=O)[C@H](CCC(N)=O)NC(=O)[C@@H](NC(=O)[C@](C)(Cc1ccccc1)NC(=O)[C@H](CC(=O)O)NC(=O)[C@H](CCCNC(=N)N)NC(=O)[C@H](C)NC(=O)[C@H](C)NC(=O)[C@H](CCCCNC(=O)COCCOCCNC(=O)COCCOCCNC(=O)CC[C@H](NC(=O)CC[C@H](NC(=O)CCCCCCCCCCCCCCCCC(=O)O)C(=O)O)C(=O)O)NC(=O)[C@H](CO)NC(=O)[C@H](CC(=O)O)NC(=O)[C@H](CC(C)C)NC(=O)[C@](C)(Cc1ccccc1)NC(=O)[C@H](CCCCN)NC(=O)[C@H](CO)NC(=O)[C@@H](NC(=O)[C@H](CC(=O)O)NC(=O)[C@H](CO)NC(=O)[C@@H](NC(=O)[C@](C)(Cc1ccccc1)NC(=O)[C@H](CO)NC(=O)CNC(=O)[C@H](Cc1c[nH]cn1)NC(=O)C(C)(C)NC(=O)[C@@H](N)Cc1c[nH]cn1)[C@@H](C)O)C(C)C)C(C)C)C(=O)N[C@@H](C)C(=O)N[C@@H](CC(N)=O)C(=O)N[C@H](C(N)=O)[C@@H](C)O [Peptide 19] (H-H[Aib]HGS[αMeF]TSDVSK[αMeF]LDSK([AEEA-AEEA-γGlu-γGlu-C18 diacid])AARD[αMeF]VQ[Aib]IANT-NH2; N-terminus assumed)
0.136 nM	0.152 nM	1.8	CC[C@H](C)[C@H](NC(=O)C(C)(C)NC(=O)[C@H](CCC(=O)O)NC(=O)[C@@H](NC(=O)[C@](C)(Cc1ccccc1)NC(=O)[C@H](CC(=O)O)NC(=O)[C@H](CCCNC(=N)N)NC(=O)[C@H](C)NC(=O)[C@H](C)NC(=O)[C@H](CCCCNC(=O)COCCOCCNC(=O)COCCOCCNC(=O)CC[C@H](NC(=O)CC[C@H](NC(=O)CCCCCCCCCCCCCCCCC(=O)O)C(=O)O)C(=O)O)NC(=O)[C@H](CO)NC(=O)[C@H](CC(=O)O)NC(=O)[C@H](CC(C)C)NC(=O)[C@](C)(Cc1ccccc1)NC(=O)[C@H](CCCCN)NC(=O)[C@H](CO)NC(=O)[C@@H](NC(=O)[C@H](CC(=O)O)NC(=O)[C@H](CO)NC(=O)[C@@H](NC(=O)[C@](C)(Cc1ccccc1)NC(=O)[C@H](CO)NC(=O)CNC(=O)[C@H](Cc1c[nH]cn1)NC(=O)C(C)(C)NC(=O)[C@@H](N)Cc1c[nH]cn1)[C@@H](C)O)C(C)C)C(C)C)C(=O)N[C@@H](C)C(=O)N[C@@H](CC(N)=O)C(=O)N[C@H](C(N)=O)[C@@H](C)O [Peptide 20] (H-H[Aib]HGS[αMeF]TSDVSK[αMeF]LDSK([AEEA-AEEA-γGlu-γGlu-C18 diacid])AARD[αMeF]VE[Aib]IANT-NH2; N-terminus assumed)
0.0688 nM	0.378 nM	0.4	CC[C@H](C)[C@H](NC(=O)[C@H](CO)NC(=O)[C@H](CCC(=O)O)NC(=O)[C@@H](NC(=O)[C@](C)(Cc1ccccc1)NC(=O)[C@H](CC(=O)O)NC(=O)[C@H](CCC(N)=O)NC(=O)[C@H](C)NC(=O)[C@H](C)NC(=O)[C@H](CCCCNC(=O)CC[C@H](NC(=O)CCCCCCCCCCCCCCCCC(=O)O)C(=O)O)NC(=O)[C@H](CO)NC(=O)[C@H](CC(=O)O)NC(=O)[C@H](CC(C)C)NC(=O)[C@](C)(Cc1ccccc1)NC(=O)[C@H](CCCCN)NC(=O)[C@H](CO)NC(=O)[C@@H](NC(=O)[C@H](CC(=O)O)NC(=O)[C@H](CO)NC(=O)[C@@H](NC(=O)[C@](C)(Cc1ccccc1)NC(=O)[C@H](CO)NC(=O)CNC(=O)[C@H](Cc1c[nH]cn1)NC(=O)C(C)(C)NC(=O)[C@@H](N)Cc1c[nH]cn1)[C@@H](C)O)C(C)C)C(C)C)C(=O)N[C@@H](C)C(=O)N[C@@H](CC(N)=O)C(=O)N[C@H](C(N)=O)[C@@H](C)O [Peptide 21] (H-H[Aib]HGS[αMeF]TSDVSK[αMeF]LDSK([γGlu-C18 diacid])AAQD[αMeF]VESIANT-NH2; N-terminus assumed)
2.72 nM	1.23 nM	4.4	CC[C@H](C)[C@H](NC(=O)[C@H](CO)NC(=O)[C@H](CCC(=O)O)NC(=O)[C@@H](NC(=O)[C@](C)(Cc1ccccc1)NC(=O)[C@H](CC(=O)O)NC(=O)[C@H](CCC(N)=O)NC(=O)[C@H](C)NC(=O)[C@H](C)NC(=O)[C@H](CCCCNC(=O)COCCOCCNC(=O)COCCOCCNC(=O)CC[C@H](NC(=O)CC[C@H](NC(=O)CCCCCCCCCCCCCCCCCCC(=O)O)C(=O)O)C(=O)O)NC(=O)[C@H](CO)NC(=O)[C@H](CC(=O)O)NC(=O)[C@H](CC(C)C)NC(=O)[C@](C)(Cc1ccccc1)NC(=O)[C@H](CCCCN)NC(=O)[C@H](CO)NC(=O)[C@@H](NC(=O)[C@H](CC(=O)O)NC(=O)[C@H](CO)NC(=O)[C@@H](NC(=O)[C@](C)(Cc1ccccc1)NC(=O)[C@H](CO)NC(=O)CNC(=O)[C@H](Cc1c[nH]cn1)NC(=O)C(C)(C)NC(=O)[C@@H](N)Cc1c[nH]cn1)[C@@H](C)O)C(C)C)C(C)C)C(=O)N[C@@H](C)C(=O)N[C@@H](CC(N)=O)C(=O)N[C@H](C(N)=O)[C@@H](C)O [Peptide 22] (H-H[Aib]HGS[αMeF]TSDVSK[αMeF]LDSK([AEEA-AEEA-γGlu-γGlu-C20 diacid])AAQD[αMeF]VESIANT-NH2; N-terminus assumed)
